These results are taken from patent US20250122208A1, “CHEMOKINE RECEPTOR MODULATORS AND USES THEREOF” (RAPT THERAPEUTICS, INC., priority 2023, published 2025).

As a reminder, the IC50 is the concentration that gives 50% inhibition.

This assay concerns the target T1, CCR4 receptor (Homo sapiens, UniProt P51679).
T1 construct: beta-galactosidase enzyme-fragment tag; From own knowledge, PathHunter uses a ProLink/enzyme-donor fragment, usually at the receptor's C-terminus; expressed in transfected cells; host or cells: CHO-K1
T1 sequence (P51679 1-360): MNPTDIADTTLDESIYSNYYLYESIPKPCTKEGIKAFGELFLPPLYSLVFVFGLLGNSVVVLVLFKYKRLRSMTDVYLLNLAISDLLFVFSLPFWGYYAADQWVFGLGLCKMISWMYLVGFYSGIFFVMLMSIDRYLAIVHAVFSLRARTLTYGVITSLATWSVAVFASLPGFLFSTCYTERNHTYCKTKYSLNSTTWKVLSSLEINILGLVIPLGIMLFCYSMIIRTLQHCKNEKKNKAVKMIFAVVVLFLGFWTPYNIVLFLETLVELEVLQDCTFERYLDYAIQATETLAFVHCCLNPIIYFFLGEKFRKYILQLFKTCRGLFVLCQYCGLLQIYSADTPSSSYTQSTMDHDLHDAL
The experiment in a line: CCR4 antagonist activity in Beta-Arrestin Cellular Assay (PathHunter, CCL22 challenge). In kind it is cell-based. Particulars: CHO-K1 cells expressing the CCR4 receptor; CCL22 at EC80 (15 nM), 90 minutes; 30 min pre-incubation; read-out: Potency (CCR4 antagonist IC50 in the β-arrestin assay). The method, then:
Example 39. Determination of CCR4 antagonist activity in Beta-Arrestin Cellular Assay
CCR4 Antagonistic Activity was assessed in Beta-Arrestin Cellular Assay. Compounds were assessed in CHO-K1 cells expressing the CCR4 receptor modified to enable β-glactosidase detection of β-arrestin agonist activity stimulated by CCL22 in a chemiluminescence assay. Cells were seeded in a total volume of 20 μL into white walled, 384-well microplates and incubated at 37° C. prior to testing. Cells were pre-incubated with test compound for 30 min at 37° C. followed by agonist challenge with CCL22 at the EC80 concentration (15 nM) for 90 minutes. Assay signal was generated through a single addition of 12.5 or 15 μL ([…]) of PathHunter Detection reagent cocktail, followed by a one-hour incubation at room temperature. Microplates were read following signal generation with a PerkinElmer Envision™ instrument for chemiluminescent signal detection. Antagonist activity was analyzed using CBIS data analysis suite (ChemInnovation, CA). Antagonist activity was characterized as percentage inhibition calculated using the following formula:
An IC50 of >500 nM is designated as Potency C, an IC50 of between 500 nM and 100 nM is designated as Potency B and an IC50 of <100 nM is designated as Potency A.

On to `Cc1ccc([C@@H](C)Nc2cc(N3CCC([C@H]4CCCN([C@H]5C[C@](C)(C(=O)O)C5)C4)CC3)nc3ccnn23)c(Cl)c1` [Example 31, (1R,3r)-3-((R)-1′-(7-(((R)-1-(2-chloro-4-methylphenyl)ethyl)amino)pyrazolo[1,5-a]pyrimidin-5-yl)-[3,4′-bipiperidin]-1-yl)-1-methylcyclobutane-1-carboxylic acid], for which the IC50 was less than 100 nM. For the molecule `C[C@@H](Nc1cc(N2CCC([C@H]3CCCN(C4CC(S(C)(=O)=O)C4)C3)CC2)nc2ncnn12)c1ccc(Cl)cc1Cl` (mixture of isomers) [Example 21, N-((R)-1-(2,4-dichlorophenyl)ethyl)-5-((R)-1-(3-(methylsulfonyl)cyclobutyl)-[3,4′-bipiperidin]-1′-yl)-[1,2,4]triazolo[1,5-a]pyrimidin-7-amine], the IC50 is less than 100 nM. The same measure for `C[C@@H](Nc1cc(N2CCC([C@H]3CCCN(CC#N)C3)CC2)nc2ncnn12)c1ccc(Cl)cc1Cl` [Example 3, 2-((R)-1′-(7-(((R)-1-(2,4-dichlorophenyl)ethyl)amino)-[1,2,4]triazolo[1,5-a]pyrimidin-5-yl)-[3,4′-bipiperidin]-1-yl)acetonitrile]: less than 100 nM; for `COCCN1CCC[C@H](C2CCN(c3cc(N[C@H](C)c4ccc(Cl)cc4Cl)n4ncnc4n3)CC2)C1` [Example 11, N-((R)-1-(2,4-dichlorophenyl)ethyl)-5-((R)-1-(2-methoxyethyl)-[3,4′-bipiperidin]-1′-yl)-[1,2,4]triazolo[1,5-a]pyrimidin-7-amine]: less than 100 nM; for `C[C@@H](Nc1cc(N2CCC([C@H]3CCCN(CCO)C3)CC2)nc2ncnn12)c1ccc(Cl)cc1Cl` [Example 8, 2-((R)-1′-(7-(((R)-1-(2,4-dichlorophenyl)ethyl)amino)-[1,2,4]triazolo[1,5-a]pyrimidin-5-yl)-[3,4′-bipiperidin]-1-yl)ethan-1-ol]: less than 100 nM. The same measure for `C[C@@H](Nc1cc(N2CCC([C@H]3CCCN([C@H]4C[C@](C)(C(=O)O)C4)C3)CC2)nc2ccnn12)c1ccc(F)cc1Cl` [Example 25, (1R,3r)-3-((R)-1′-(7-(((R)-1-(2-chloro-4-fluorophenyl)ethyl)amino)pyrazolo[1,5-a]pyrimidin-5-yl)-[3,4′-bipiperidin]-1-yl)-1-methylcyclobutane-1-carboxylic acid]: less than 100 nM.

Take `C[C@@H](Nc1cc(N2CCC([C@H]3CCCN([C@H]4C[C@](C)(C(=O)O)C4)C3)CC2)nc2ncnn12)c1ccc(Cl)cc1F` [Example 37, (1R,3r)-3-((R)-1′-(7-(((R)-1-(4-chloro-2-fluorophenyl)ethyl)amino)-[1,2,4]triazolo[1,5-a]pyrimidin-5-yl)-[3,4′-bipiperidin]-1-yl)-1-methylcyclobutane-1-carboxylic acid]: the IC50 is less than 100 nM. Consider `C[C@@H](Nc1cc(N2CCC([C@H]3CCCN(CCC(=O)O)C3)CC2)nc2ncnn12)c1ccc(Cl)cc1Cl` [Example 14, 3-((R)-1′-(7-(((R)-1-(2,4-dichlorophenyl)ethyl)amino)-[1,2,4]triazolo[1,5-a]pyrimidin-5-yl)-[3,4′-bipiperidin]-1-yl)propanoic acid], for which the 50% inhibitory concentration (IC50) is less than 100 nM. With `C[C@@H](Nc1cc(N2CCC([C@H]3CCCN(CC(F)(F)F)C3)CC2)nc2ncnn12)c1ccc(Cl)cc1Cl` [Example 7, N-((R)-1-(2,4-dichlorophenyl)ethyl)-5-((R)-1-(2,2,2-trifluoroethyl)-[3,4′-bipiperidin]-1′-yl)-[1,2,4]triazolo[1,5-a]pyrimidin-7-amine] the figure was more than 500 nM.

In the case of `Cc1cc(F)ccc1[C@@H](C)Nc1cc(N2CCC([C@H]3CCCN([C@H]4C[C@](C)(C(=O)O)C4)C3)CC2)nc2ccnn12` [Example 29, (1R,3r)-3-((R)-1′-(7-(((R)-1-(4-fluoro-2-methylphenyl)ethyl)amino)pyrazolo[1,5-a]pyrimidin-5-yl)-[3,4′-bipiperidin]-1-yl)-1-methylcyclobutane-1-carboxylic acid], the half-maximal inhibitory concentration (IC50) is less than 100 nM. In the case of `C[C@@H](Nc1cc(N2CCC([C@H]3CCCN(C)C3)CC2)nc2ncnn12)c1ccc(Cl)cc1Cl` [Example 9, N-((R)-1-(2,4-dichlorophenyl)ethyl)-5-((R)-1-methyl-[3,4′-bipiperidin]-1′-yl)-[1,2,4]triazolo[1,5-a]pyrimidin-7-amine], the half-maximal inhibitory concentration (IC50) is less than 100 nM. With `CNS(=O)(=O)CCCN1CCC[C@H](C2CCN(c3cc(N[C@H](C)c4ccc(Cl)cc4Cl)n4ncnc4n3)CC2)C1` [Example 20, 3-((R)-1′-(7-(((R)-1-(2,4-dichlorophenyl)ethyl)amino)-[1,2,4]triazolo[1,5-a]pyrimidin-5-yl)-[3,4′-bipiperidin]-1-yl)-N-methylpropane-1-sulfonamide] the figure was less than 100 nM. With `Cc1cc(Cl)ccc1[C@@H](C)Nc1cc(N2CCC([C@H]3CCCN([C@H]4C[C@](C)(C(=O)O)C4)C3)CC2)nc2ccnn12` [Example 32, (1R,3r)-3-((R)-1′-(7-(((R)-1-(4-chloro-2-methylphenyl)ethyl)amino)pyrazolo[1,5-a]pyrimidin-5-yl)-[3,4′-bipiperidin]-1-yl)-1-methylcyclobutane-1-carboxylic acid], the IC50 was less than 100 nM. For `Cc1ccc([C@@H](C)Nc2cc(N3CCC([C@H]4CCCN([C@H]5C[C@](C)(C(=O)O)C5)C4)CC3)nc3ncnn23)c(Cl)c1` [Example 30, (1R,3r)-3-((R)-1′-(7-(((R)-1-(2-chloro-4-methylphenyl)ethyl)amino)-[1,2,4]triazolo[1,5-a]pyrimidin-5-yl)-[3,4′-bipiperidin]-1-yl)-1-methylcyclobutane-1-carboxylic acid], the half-inhibitory concentration (IC50) is less than 100 nM. In the case of `C[C@@H](Nc1cc(N2CCC([C@H]3CCCN([C@H]4C[C@](C)(C(=O)O)C4)C3)CC2)nc2nccn12)c1ccc(Cl)cc1F` [Example 27, (1R,3r)-3-((R)-1′-(5-(((R)-1-(4-chloro-2-fluorophenyl)ethyl)amino)imidazo[1,2-a]pyrimidin-7-yl)-[3,4′-bipiperidin]-1-yl)-1-methylcyclobutane-1-carboxylic acid], the IC50 is less than 100 nM. For `C[C@@H](Nc1cc(N2CCC([C@H]3CCCN([C@H]4C[C@](C)(C(=O)O)C4)C3)CC2)nc2ncnn12)c1ccc(Cl)cc1Cl` [Example 18, (1R,3r)-3-((R)-1′-(7-(((R)-1-(2,4-dichlorophenyl)ethyl)amino)-[1,2,4]triazolo[1,5-a]pyrimidin-5-yl)-[3,4′-bipiperidin]-1-yl)-1-methylcyclobutane-1-carboxylic acid], the concentration for half-maximal inhibition (IC50) lay within 100 to 500 nM. `C[C@@H](Nc1cc(N2CCC([C@H]3CCCN(Cc4nn[nH]n4)C3)CC2)nc2ncnn12)c1ccc(Cl)cc1Cl` [Example 2, 5-((R)-1-((2H-tetrazol-5-yl)methyl)-[3,4′-bipiperidin]-1′-yl)-N-((R)-1-(2,4-dichlorophenyl)ethyl)-[1,2,4]triazolo[1,5-a]pyrimidin-7-amine]: the IC50 is less than 100 nM. Take `C[C@@H](Nc1cc(N2CCC([C@H]3CCCN([C@H]4C[C@](C)(C(=O)O)C4)C3)CC2)nc2nccn12)c1ccc(Cl)cc1Cl` [Example 36, (1R,3r)-3-((R)-1′-(5-(((R)-1-(2,4-dichlorophenyl)ethyl)amino)imidazo[1,2-a]pyrimidin-7-yl)-[3,4′-bipiperidin]-1-yl)-1-methylcyclobutane-1-carboxylic acid]: the IC50 is less than 100 nM. The same measure for `C[C@@H](Nc1cc(N2CCC([C@H]3CCCN(CCS(N)(=O)=O)C3)CC2)nc2ncnn12)c1ccc(Cl)cc1Cl` [Example 19, 2-((R)-1′-(7-(((R)-1-(2,4-dichlorophenyl)ethyl)amino)-[1,2,4]triazolo[1,5-a]pyrimidin-5-yl)-[3,4′-bipiperidin]-1-yl)ethane-1-sulfonamide]: less than 100 nM; for `C[C@@H](Nc1cc(N2CCC([C@H]3CCCN(CCCO)C3)CC2)nc2ncnn12)c1ccc(Cl)cc1Cl` [Example 22, 3-((R)-1′-(7-(((R)-1-(2,4-dichlorophenyl)ethyl)amino)-[1,2,4]triazolo[1,5-a]pyrimidin-5-yl)-[3,4′-bipiperidin]-1-yl)propan-1-ol]: less than 100 nM; for `C[C@@H](Nc1cc(N2CCC([C@H]3CCCN([C@H]4C[C@](C)(C(=O)O)C4)C3)CC2)nc2ccnn12)c1ccc(Cl)cc1Cl` [Example 24, (1R,3r)-3-((R)-1′-(7-(((R)-1-(2,4-dichlorophenyl)ethyl)amino)pyrazolo[1,5-a]pyrimidin-5-yl)-[3,4′-bipiperidin]-1-yl)-1-methylcyclobutane-1-carboxylic acid]: less than 100 nM.
